Key:
Conditions in all cases: 72 h
HepG2 [1] = assay: cell viability relative to DMSO; higher = less toxic
U2OS [2] = assay: as above
Vero E6 [3] = assay: as above
Caco-2 [4] = assay: as above
Calu-3 [5] = assay: as above
HepG2 [6] = assay: relative viability EC50 (midpoint between 100% and the lowest measured viability); higher = less toxic
U2OS [7] = assay: as above
Vero E6 [8] = assay: as above
Caco-2 [9] = assay: as above
Calu-3 [10] = assay: as above
HepG2 [11] = assay: drug sensitivity score (DSS) for viability; higher = more toxic; extreme values may be limits of the assay
U2OS [12] = assay: as above
Vero E6 [13] = assay: as above
Caco-2 [14] = assay: as above
Calu-3 [15] = assay: as above

Compound | cell viability (HepG2 [1]; 1 nM) [%] | cell viability (HepG2 [1]; 10 nM) [%] | cell viability (HepG2 [1]; 100 nM) [%] | cell viability (HepG2 [1]; 1000 nM) [%] | cell viability (HepG2 [1]; 10000 nM) [%] | cell viability (U2OS [2]; 1 nM) [%] | cell viability (U2OS [2]; 10 nM) [%] | cell viability (U2OS [2]; 100 nM) [%] | cell viability (U2OS [2]; 1000 nM) [%] | cell viability (U2OS [2]; 10000 nM) [%] | cell viability (Vero E6 [3]; 1 nM) [%] | cell viability (Vero E6 [3]; 10 nM) [%] | cell viability (Vero E6 [3]; 100 nM) [%] | cell viability (Vero E6 [3]; 1000 nM) [%] | cell viability (Vero E6 [3]; 10000 nM) [%] | cell viability (Caco-2 [4]; 1 nM) [%] | cell viability (Caco-2 [4]; 10 nM) [%] | cell viability (Caco-2 [4]; 100 nM) [%] | cell viability (Caco-2 [4]; 1000 nM) [%] | cell viability (Caco-2 [4]; 10000 nM) [%] | cell viability (Calu-3 [5]; 1 nM) [%] | cell viability (Calu-3 [5]; 10 nM) [%] | cell viability (Calu-3 [5]; 100 nM) [%] | cell viability (Calu-3 [5]; 1000 nM) [%] | cell viability (Calu-3 [5]; 10000 nM) [%] | relative viability EC50 (HepG2 [6]) [µM] | relative viability EC50 (U2OS [7]) [µM] | relative viability EC50 (Vero E6 [8]) [µM] | relative viability EC50 (Caco-2 [9]) [µM] | relative viability EC50 (Calu-3 [10]) [µM] | drug sensitivity score (HepG2 [11]) | drug sensitivity score (U2OS [12]) | drug sensitivity score (Vero E6 [13]) | drug sensitivity score (Caco-2 [14]) | drug sensitivity score (Calu-3 [15])
CCCOCCn1c(=O)c(N2CCN(CCO)CC2)nc2cnc(-c3ccc(OC)nc3)cc21 | 109 | 105 | 98.8 | 104 | 87.1 | 95.5 | 97.4 | 103 | 95.5 | 99.8 | 109 | 107 | 100 | 107 | 92.8 | 102 | 92.3 | 94.4 | 86.8 | 93.6 | 99.5 | 88.8 | 98.9 | 94.2 | 104 | > 10 | > 10 | > 10 | > 10 | > 10 | 0 | 0 | 0 | 0.1 | 0
CCNC(=O)c1n[nH]c(-c2cc(Cl)c(O)cc2O)c1-c1ccc(OC)cc1 | 104 | 94.2 | 105 | 31.3 | 2 | 93.7 | 99.1 | 99.5 | 78.7 | 4.7 | 100 | 95.7 | 100 | 78.5 | 37.8 | 95.3 | 101 | 94.4 | 83.8 | 32.7 | 99.8 | 88.5 | 96.1 | 85.8 | 39.2 | 0.714 | 1.64 | 1.29 | 1.58 | 1.61 | 13.3 | 8.6 | 6.5 | 6.2 | 5.6
COC(=O)C(Cc1ccc(OCCn2c(=O)sc3cc(C(=O)c4ccccc4)ccc32)cc1)C(=O)OC | 95.5 | 101 | 98.7 | 95.1 | 102 | 100 | 95.1 | 95.6 | 106 | 105 | 93.7 | 96.7 | 89.2 | 81.6 | 85.5 | 100 | 93 | 101 | 109 | 101 | 94.4 | 109 | 97.7 | 104 | 118 | > 10 | > 10 | > 10 | > 10 | > 10 | 0 | 0 | 2.1 | 0 | 0
C[C@@H]1CN(Cc2ncccn2)C[C@H]1c1nc2c(cnn2C2CCOCC2)c(=O)[nH]1 | 99.2 | 94 | 100 | 96.5 | 107 | 98.2 | 102 | 102 | 103 | 99.9 | 93.6 | 97.7 | 93.7 | 96 | 103 | 94.4 | 92.4 | 96 | 94.7 | 107 | 98.5 | 100 | 105 | 111 | 93.7 | > 10 | > 10 | > 10 | > 10 | > 10 | 0 | 0 | 0 | 0 | 0
Cc1ccc(-c2n[nH]c3c2C(c2cccc(O)c2)N(c2ccc(C(=O)O)cc2)C3=O)cc1 (stereo not given) | 111 | 101 | 114 | 93.4 | 103 | 90.5 | 96.2 | 99.1 | 99.7 | 98.1 | 102 | 104 | 101 | 95.8 | 101 | 93.4 | 99.2 | 87 | 100 | 100 | 92 | 105 | 98.6 | 99.9 | 88.2 | > 10 | > 10 | > 10 | > 10 | > 10 | 0 | 0 | 0 | 0 | 0
Cn1c2c(c3ccccc31)CCNCC2 | 93 | 98.3 | 93.1 | 103 | 98.4 | 100 | 94.4 | 98.3 | 95.9 | 104 | 102 | 103 | 104 | 108 | 99.6 | 109 | 98.6 | 102 | 97.9 | 97.1 | 96.7 | 101 | 99.3 | 103 | 96.8 | > 10 | > 10 | > 10 | > 10 | > 10 | 0 | 0 | 0 | 0 | 0
Cn1cc(C(=O)C(=O)N[C@H]2CN3CCC2CC3)c2ccccc21 | 108 | 94.2 | 114 | 95.3 | 96.9 | 96.8 | 107 | 99.2 | 101 | 96.1 | 112 | 114 | 105 | 97.9 | 98.5 | 95.7 | 99.6 | 104 | 99.9 | 110 | 99.9 | 102 | 98.9 | 100 | 94.5 | > 10 | > 10 | > 10 | > 10 | > 10 | 0 | 0 | 0 | 0 | 0
N#Cc1cc(CN2CCC(Nc3ncnc4sc(Cl)cc34)CC2)ccc1F | 97.6 | 97.3 | 107 | 78.6 | 29.1 | 96.9 | 98.6 | 96.3 | 103 | 89.1 | 102 | 98.1 | 103 | 102 | 93.4 | 98 | 98.7 | 91.2 | 98.8 | 79.7 | 104 | 106 | 103 | 97.7 | 87.7 | 1.4 | > 10 | > 10 | > 10 | > 10 | 7.1 | 0 | 0 | 0.8 | 0.2
Clc1ccc(C(c2ccc(Cl)cc2)C(Cl)(Cl)Cl)cc1 [4,4'-DDT] | 98.5 | 104 | 97.5 | 95.8 | 98.2 | 103 | 101 | 100 | 97.3 | 106 | 103 | 105 | 105 | 102 | 99.9 | 99.1 | 102 | 105 | 95.2 | 97.8 | 99.1 | 110 | 93 | 105 | 95.6 | > 10 | > 10 | > 10 | > 10 | > 10 | 0 | 0 | 0 | 0 | 0
Cc1[nH]c2ccc(F)cc2c1-c1nc2c3cccnc3c3ncccc3c2[nH]1 [APTO-253] | 93.2 | 97.2 | 96.7 | 92.1 | 42 | 96.7 | 96.6 | 97.9 | 80.1 | 27.4 | 96.2 | 94.6 | 94 | 95.9 | 86.9 | 95.9 | 100 | 94.7 | 88.3 | 90.3 | 111 | 93.9 | 95.2 | 36.6 | 5.3 | 2.07 | 1.47 | > 10 | > 10 | 0.639 | 4.5 | 7 | 0 | 0.6 | 13
NC1=N[C@@](c2cccc(-c3cncnc3)c2)(c2ccnc(C(F)F)c2)c2cccc(F)c21 [AZD3839] | 108 | 103 | 106 | 118 | 97.3 | 95.4 | 99 | 106 | 97.9 | 94.5 | 110 | 106 | 99.9 | 102 | 104 | 107 | 102 | 101 | 96.1 | 97 | 102 | 98.4 | 99.7 | 98.7 | 109 | > 10 | > 10 | > 10 | > 10 | > 10 | 0 | 0 | 0 | 0 | 0
CC(=O)N(O)C/C=C/c1cccc(Oc2ccccc2)c1 [BW-A4C] | 95.6 | 99.4 | 104 | 84.5 | 92.9 | 95.4 | 95.5 | 94.6 | 98.6 | 81.8 | 107 | 86.1 | 109 | 95.2 | 102 | 92.5 | 103 | 115 | 92.9 | 102 | 89.6 | 105 | 97.8 | 114 | 112 | > 10 | > 10 | > 10 | > 10 | > 10 | 1.4 | 0.6 | 0 | 0 | 0
C=CC(=O)Nc1cccc(Nc2nc(Nc3ccc(NC4CN(CCF)C4)cc3OC)ncc2C(F)(F)F)c1 [CNX-2006] | 99.9 | 110 | 97.3 | 102 | 27.6 | 102 | 98.7 | 98.8 | 92.7 | 37.2 | 102 | 102 | 101 | 88.7 | 26.7 | 105 | 100 | 99.1 | 83.7 | 38.3 | 96.2 | 99.4 | 77.9 | 44.4 | 10 | 3.34 | 2.21 | 1.97 | 1.51 | 0.464 | 3.8 | 4.7 | 5.9 | 5.9 | 13.3
Nc1nc(Nc2ccccc2)nc2c1ncn2[C@@H]1O[C@H](CO)[C@@H](O)[C@H]1O [CV-1808] | 95.4 | 94.2 | 109 | 98.8 | 94.9 | 103 | 100 | 98.5 | 106 | 105 | 94 | 93 | 94.5 | 96.3 | 97.2 | 98.9 | 93 | 101 | 105 | 99.3 | 101 | 106 | 93 | 110 | 106 | > 10 | > 10 | > 10 | > 10 | > 10 | 0 | 0 | 0 | 0 | 0

Source: the supplement of paper PMC13380429
